Results as given in EP4617278A1, “NUCLEOTIDE ANALOG, AND COMPOSITION AND USE THEREOF” (priority 2022, dated 2024).

System: SARS-CoV-2 replicon
Assay type: cell-based
Settings: read-out: SARS-CoV-2 Replicon (Huh-7cell) EC50

Compound | EC50 [nM]
CCC(C)(C)COC(=O)[C@H](C)NP(=O)(OCOC(=O)OC(C)C)OC[C@H]1O[C@@](C#N)(c2ccc3c(N)ncnn23)[C@H](OC(=O)C(C)C)[C@@H]1OC(=O)C(C)C (mixture of isomers) [Compound 14, (2R,3R,4R,5R)-2-(4-aminopyrrolo[2,1-f][1,2,4]triazin-7-yl)-2-cyano-5-((((((S)-1-(2,2-dimethylbutoxy)-1-oxopropan-2-yl)amino)(((isopropoxycarbonyl)oxy)methoxy)phosphoryl)oxy)methyl)tetrahydrofuran-3,4-diyl bis(2-methylpropionate)] | 10 to 50
CC(C)C(=O)O[C@H]1[C@@H](OC(=O)C(C)C)[C@](C#N)(c2ccc3c(N)ncnn23)O[C@@H]1COP(=O)(OCCSC(=O)C(C)(C)C)Oc1ccc(C(C)(C)C)cc1 (mixture of isomers) [Compound 27, (2R,3R,4R,5R)-2-(4-aminopyrrolo[2,1-f][1,2,4]triazin-7-yl)-5-((((4-tert-butylphenoxy)(2-(pivaloylthio)ethoxy)phosphoryl)oxy)methyl)-2-cyanotetrahydrofuran-3,4-diyl bis(2-methylpropionate)] | 10 to 50
CCCCCCCCCCCCCCCCOCCCOP(=O)(OCOC(=O)OC(C)C)OC[C@H]1O[C@@](C#N)(c2ccc3c(N)ncnn23)[C@H](OC(=O)C(C)C)[C@@H]1OC(=O)C(C)C (mixture of isomers) [Compound 36, (2R,3R,4R,5R)-2-(4-aminopyrrolo[2,1-f][1,2,4]triazin-7-yl)-2-cyano-5-((((3-(hexadecyloxy)propoxy)(((isopropoxycarbonyl)oxy)methoxy)phosphoryl)oxy)methyl)tetr ahydrofuran-3,4-diyl bis(2-methylpropionate)] | 50 to 500
CCC(=O)O[C@H]1[C@@H](OC(=O)CC)[C@](C#N)(c2ccc3c(N)ncnn23)O[C@@H]1CO[P@](=O)(N[C@@H](C)C(=O)OC(C)C)OCOC(=O)OC(C)C [Compound 2a, (2R,3R,4R,5R)-2-(4-aminopyrrolo[2,1-f][1,2,4]triazin-7-yl)-2-cyano-5-((((R)-(((S)-1-isopropoxy-1-oxopropan-2-yl)amino)(((isopropoxycarbonyl)oxy)methoxy)phosphoryl)oxy)methyl)tetrahydrofuran-3,4-diyl dipropionate] | 5 to 10
CCC(=O)O[C@H]1[C@@H](OC(=O)CC)[C@](C#N)(c2ccc3c(N)ncnn23)O[C@@H]1CO[P@@](=O)(N[C@@H](C)C(=O)OC(C)C)OCOC(=O)OC(C)C [Compound 2b, (2R,3R,4R,5R)-2-(4-aminopyrrolo[2,1-f][1,2,4]triazin-7-yl)-2-cyano-5-((((S)-(((S)-1-isopropoxy-1-oxopropan-2-yl)amino)(((isopropoxycarbonyl)oxy)methoxy)phosphoryl)oxy)methyl)tetrahydrofuran-3,4-diyl dipropionate] | ≤ 5
CC(C)OC(=O)OCO[P@@](=O)(N[C@@H](C)C(=O)OC(C)C)OC[C@H]1O[C@@](C#N)(c2ccc3c(N)ncnn23)[C@H](OC(=O)C(C)C)[C@@H]1OC(=O)C(C)C [Compound 3a, (2R,3R,4R,5R)-2-(4-aminopyrrolo[2,1-f][1,2,4]triazin-7-yl)-2-cyano-5-((((R)-(((S)-1-isopropoxy-1-oxopropan-2-yl)amino)(((isopropoxycarbonyl)oxy)methoxy)phosphoryl)oxy)methyl)tetrahydrofuran-3,4-diyl bis(2-methylpropionate)] | 10 to 50
CC(C)OC(=O)OCO[P@](=O)(N[C@@H](C)C(=O)OC(C)C)OC[C@H]1O[C@@](C#N)(c2ccc3c(N)ncnn23)[C@H](OC(=O)C(C)C)[C@@H]1OC(=O)C(C)C [Compound 3b, (2R,3R,4R,5R)-2-(4-aminopyrrolo[2,1-f][1,2,4]triazin-7-yl)-2-cyano-5-((((S)-(((S)-1-isopropoxy-1-oxopropan-2-yl)amino)(((isopropoxycarbonyl)oxy)methoxy)phosphoryl)oxy)methyl)tetrahydrofuran-3,4-diyl bis(2-methylpropionate)] | < 5
CC(C)OC(=O)OCO[P@@](=O)(N[C@@H](C)C(=O)OC(C)C)OC[C@H]1O[C@@](C#N)(c2ccc3c(N)ncnn23)[C@H](OC(=O)C(C)(C)C)[C@@H]1OC(=O)C(C)(C)C [Compound 4a, (2R,3R,4R,5R)-2-(4-aminopyrrolo[2,1-f][1,2,4]triazin-7-yl)-2-cyano-5-((((R)-(((S)-1-isopropoxy-1-oxopropan-2-yl)amino)(((isopropoxycarbonyl)oxy)methoxy)phosphoryl)oxy)methyl)tetrahydrofuran-3,4-diyl bis(2,2-dimethylpropionate)] | 50 to 500
CC(C)OC(=O)OCO[P@](=O)(N[C@@H](C)C(=O)OC(C)C)OC[C@H]1O[C@@](C#N)(c2ccc3c(N)ncnn23)[C@H](OC(=O)C(C)(C)C)[C@@H]1OC(=O)C(C)(C)C [Compound 4b, (2R,3R,4R,5R)-2-(4-aminopyrrolo[2,1-f][1,2,4]triazin-7-yl)-2-cyano-5-((((S)-(((S)-1-isopropoxy-1-oxopropan-2-yl)amino)(((isopropoxycarbonyl)oxy)methoxy)phosphoryl)oxy)methyl)tetrahydrofuran-3,4-diyl bis(2,2-dimethylpropionate)] | 50 to 500
CCC(=O)O[C@H]1[C@@H](OC(=O)CC)[C@](C#N)(c2ccc3c(N)ncnn23)O[C@@H]1CO[P@](=O)(N[C@@H](C)C(=O)OCC(CC)CC)OCOC(=O)OC(C)C [Compound 6a, (2R,3R,4R,5R)-2-(4-aminopyrrolo[2,1-f][1,2,4]triazin-7-yl)-2-cyano-5-((((R)-(((S)-1-(2-ethylbutoxy)-1-oxopropan-2-yl)amino)(((isopropoxycarbonyl)oxy)methoxy)phosphoryl)oxy)methyl)tetrahydrofuran-3,4-diyl dipropionate] | 5 to 10
CCC(=O)O[C@H]1[C@@H](OC(=O)CC)[C@](C#N)(c2ccc3c(N)ncnn23)O[C@@H]1CO[P@@](=O)(N[C@@H](C)C(=O)OCC(CC)CC)OCOC(=O)OC(C)C [Compound 6b, (2R,3R,4R,5R)-2-(4-aminopyrrolo[2,1-f][1,2,4]triazin-7-yl)-2-cyano-5-((((S)-(((S)-1-(2-ethylbutoxy)-1-oxopropan-2-yl)amino)(((isopropoxycarbonyl)oxy)methoxy)phosphoryl)oxy)methyl)tetrahydrofuran-3,4-diyl dipropionate] | ≤ 5
CCC(CC)COC(=O)[C@H](C)N[P@](=O)(OCOC(=O)OC(C)C)OC[C@H]1O[C@@](C#N)(c2ccc3c(N)ncnn23)[C@H](OC(=O)C(C)C)[C@@H]1OC(=O)C(C)C [Compound 7a, (2R,3R,4R,5R)-2-(4-aminopyrrolo[2,1-f][1,2,4]triazin-7-yl)-2-cyano-5-((((R)-(((S)-1-(2-ethylbutoxy)-1-oxopropan-2-yl)amino)(((isopropoxycarbonyl)oxy)methoxy)phosphoryl)oxy)methyl)tetrahydrofuran-3,4-diyl bis(2-methylpropionate)] | 10 to 50
CCC(CC)COC(=O)[C@H](C)N[P@@](=O)(OCOC(=O)OC(C)C)OC[C@H]1O[C@@](C#N)(c2ccc3c(N)ncnn23)[C@H](OC(=O)C(C)C)[C@@H]1OC(=O)C(C)C [Compound 7b, (2R,3R,4R,5R)-2-(4-aminopyrrolo[2,1-f][1,2,4]triazin-7-yl)-2-cyano-5-((((S)-(((S)-1-(2-ethylbutoxy)-1-oxopropan-2-yl)amino)(((isopropoxycarbonyl)oxy)methoxy)phosphoryl)oxy)methyl)tetrahydrofuran-3,4-diyl bis(2-methylpropionate)] | 10 to 50
CCC(CC)COC(=O)[C@H](C)N[P@](=O)(OCOC(=O)C(C)(C)C)OC[C@H]1O[C@@](C#N)(c2ccc3c(N)ncnn23)[C@H](OC(C)=O)[C@@H]1OC(C)=O [Compound 9a, (2R,3R,4R,5R)-2-(4-aminopyrrolo[2,1-f][1,2,4]triazin-7-yl)-2-cyano-5-((((R)-(((S)-1-(2-ethylbutoxy)-1-oxopropan-2-yl)amino)((pivaloyloxy)methoxy)phosphoryl)oxy)methyl)tetrahydrofuran-3,4-diyl diacetate] | 5 to 10
CCC(CC)COC(=O)[C@H](C)N[P@@](=O)(OCOC(=O)C(C)(C)C)OC[C@H]1O[C@@](C#N)(c2ccc3c(N)ncnn23)[C@H](OC(C)=O)[C@@H]1OC(C)=O [Compound 9b, (2R,3R,4R,5R)-2-(4-aminopyrrolo[2,1-f][1,2,4]triazin-7-yl)-2-cyano-5-((((S)-(((S)-1-(2-ethylbutoxy)-1-oxopropan-2-yl)amino)((pivaloyloxy)methoxy)phosphoryl)oxy)methyl)tetrahydrofuran-3,4-diyl diacetate] | ≤ 5
CCC(=O)O[C@H]1[C@@H](OC(=O)CC)[C@](C#N)(c2ccc3c(N)ncnn23)O[C@@H]1CO[P@](=O)(N[C@@H](C)C(=O)OCC(CC)CC)OCOC(=O)C(C)(C)C [Compound 10a, (2R,3R,4R,5R)-2-(4-aminopyrrolo[2,1-f][1,2,4]triazin-7-yl)-2-cyano-5-((((R)-(((S)-1-(2-ethylbutoxy)-1-oxopropan-2-yl)amino)((pivaloyloxy)methoxy)phosphoryl)oxy)methyl)tetrahydrofuran-3,4-diyl dipropionate] | 10 to 50
CCC(=O)O[C@H]1[C@@H](OC(=O)CC)[C@](C#N)(c2ccc3c(N)ncnn23)O[C@@H]1CO[P@@](=O)(N[C@@H](C)C(=O)OCC(CC)CC)OCOC(=O)C(C)(C)C [Compound 10b, (2R,3R,4R,5R)-2-(4-aminopyrrolo[2,1-f][1,2,4]triazin-7-yl)-2-cyano-5-((((S)-(((S)-1-(2-ethylbutoxy)-1-oxopropan-2-yl)amino)((pivaloyloxy)methoxy)phosphoryl)oxy)methyl)tetrahydrofuran-3,4-diyl dipropionate] | ≤ 5
CCC(CC)COC(=O)[C@H](C)N[P@](=O)(OCOC(=O)C(C)(C)C)OC[C@H]1O[C@@](C#N)(c2ccc3c(N)ncnn23)[C@H](OC(=O)C(C)C)[C@@H]1OC(=O)C(C)C [Compound 11a, (2R,3R,4R,5R)-2-(4-aminopyrrolo[2,1-f][1,2,4]triazin-7-yl)-2-cyano-5-((((R)-(((S)-1-(2-ethylbutoxy)-1-oxopropan-2-yl)amino)((pivaloyloxy)methoxy)phosphoryl)oxy)methyl)tetrahydrofuran-3,4-diyl bis(2-methylpropionate)] | 10 to 50
